# A compilation of properties of binary mixtures (doi:10.1021/acs.jpcc.8b05573)
# Experiment: xn = mol fraction of the nth substance listed
# Conditions: 100 kPa, x1 = 0.24
compound,measurement,setting,value
O=S(=O)([N-]S(=O)(=O)C(F)(F)F)C(F)(F)F.[Na+] + CCCC[N+]1(C)CCCC1.O=S(=O)([N-]S(=O)(=O)C(F)(F)F)C(F)(F)F,electrical conductivity,274.2 K,0.006 S/m
same,electrical conductivity,283.8 K,0.02 S/m
same,electrical conductivity,291.9 K,0.041 S/m
same,electrical conductivity,300.2 K,0.07 S/m
same,electrical conductivity,308.6 K,0.119 S/m
same,electrical conductivity,323.4 K,0.223 S/m
same,electrical conductivity,356.5 K,0.663 S/m
same,electrical conductivity,362.4 K,0.805 S/m
same,electrical conductivity,380.6 K,1.24 S/m
same,electrical conductivity,417.8 K,2.45 S/m
same,electrical conductivity,434.2 K,3.04 S/m
O=S(=O)([N-]S(=O)(=O)C(F)(F)F)C(F)(F)F.O=S(=O)([N-]S(=O)(=O)C(F)(F)F)C(F)(F)F.[Mg+2] + CCCC[N+]1(C)CCCC1.O=S(=O)([N-]S(=O)(=O)C(F)(F)F)C(F)(F)F,electrical conductivity,279.2 K,0.003 S/m
same,electrical conductivity,282.4 K,0.005 S/m
same,electrical conductivity,286.1 K,0.006 S/m
same,electrical conductivity,289.5 K,0.009 S/m
same,electrical conductivity,293 K,0.013 S/m
same,electrical conductivity,296.9 K,0.017 S/m
same,electrical conductivity,300.2 K,0.022 S/m
same,electrical conductivity,304.4 K,0.031 S/m
same,electrical conductivity,310.6 K,0.046 S/m
same,electrical conductivity,317.5 K,0.07 S/m
same,electrical conductivity,323.8 K,0.096 S/m
same,electrical conductivity,334.5 K,0.159 S/m
same,electrical conductivity,345.4 K,0.252 S/m
same,electrical conductivity,355.5 K,0.346 S/m
same,electrical conductivity,363.5 K,0.461 S/m
same,electrical conductivity,372.9 K,0.574 S/m
same,electrical conductivity,386 K,0.786 S/m
same,electrical conductivity,400.6 K,1.08 S/m
same,electrical conductivity,417.1 K,1.44 S/m
O=S(=O)([N-]S(=O)(=O)C(F)(F)F)C(F)(F)F.O=S(=O)([N-]S(=O)(=O)C(F)(F)F)C(F)(F)F.[Zn+2] + CCCC[N+]1(C)CCCC1.O=S(=O)([N-]S(=O)(=O)C(F)(F)F)C(F)(F)F,electrical conductivity,337.3 K,0.163 S/m
same,electrical conductivity,344.9 K,0.213 S/m
same,electrical conductivity,366.8 K,0.399 S/m
same,electrical conductivity,375.2 K,0.508 S/m
same,electrical conductivity,391 K,0.805 S/m
same,electrical conductivity,430.4 K,1.79 S/m
same,electrical conductivity,449.5 K,2.51 S/m
O=S(=O)([N-]S(=O)(=O)C(F)(F)F)C(F)(F)F.[Li+] + CCCC[N+]1(C)CCCC1.O=S(=O)([N-]S(=O)(=O)C(F)(F)F)C(F)(F)F,electrical conductivity,272.9 K,0.005 S/m
same,electrical conductivity,279.8 K,0.01 S/m
same,electrical conductivity,288.8 K,0.027 S/m
same,electrical conductivity,295.1 K,0.052 S/m
same,electrical conductivity,305.1 K,0.098 S/m
same,electrical conductivity,325.1 K,0.235 S/m
same,electrical conductivity,338.2 K,0.329 S/m
same,electrical conductivity,360.2 K,0.633 S/m
same,electrical conductivity,371.2 K,0.846 S/m
same,electrical conductivity,385.4 K,1.24 S/m
same,electrical conductivity,409.4 K,1.88 S/m
same,electrical conductivity,429.6 K,2.77 S/m
